# What was measured:
# [1] = target: T1, Adenosine receptor A1 (Cavia porcellus) (UniProt P47745)
# T1 sequence (whole entry): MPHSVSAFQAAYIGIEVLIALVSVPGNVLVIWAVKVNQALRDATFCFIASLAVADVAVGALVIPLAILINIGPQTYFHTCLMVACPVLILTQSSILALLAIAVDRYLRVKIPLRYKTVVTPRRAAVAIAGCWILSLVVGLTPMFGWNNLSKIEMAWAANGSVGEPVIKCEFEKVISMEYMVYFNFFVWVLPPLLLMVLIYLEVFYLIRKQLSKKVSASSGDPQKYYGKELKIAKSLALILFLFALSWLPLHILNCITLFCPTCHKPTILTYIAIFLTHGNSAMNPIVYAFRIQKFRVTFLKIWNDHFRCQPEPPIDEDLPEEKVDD
# [2] = Elimination half-life after oral administration at a dose of 4 mg/kg in rat; assay type: ADME, organism-based; set-up: dose 4 mg/kg, route oral; settings: in vivo
# [3] = target: T1, Adenosine receptor A1 (Cavia porcellus); test: Binding affinity against […] using [35S]GTP-gamma-S, radioligand in guinea pig.; assay type: functional
# Adenosine receptor A1 = target: T2, Adenosine receptor A1 (Cavia porcellus, UniProt P47745); test: Agonistic activity against adenosine A1 receptor in guinea pig isolated hearts; assay type: functional
# T2 sequence (P47745 whole entry): T1 sequence (whole entry)
# [4] = target: T1, Adenosine receptor A1 (Cavia porcellus); remark: listed apart in the source
# [5] = Cmax after oral administration at a dose of 4 mg/kg in rat; assay type: ADME, organism-based; set-up: dose 4 mg/kg, route oral; settings: in vivo
# [6] = Plasma clearance after IV dosing at 1 mg/kg in rat; assay type: ADME, organism-based; set-up: dose 1 mg/kg, route intravenous; settings: read-out: Clp
# [7] = Elimination half-life after IV dosing at 1 mg/kg in rat; assay type: ADME, organism-based; set-up: dose 1 mg/kg, route intravenous; settings: in vivo
# [8] = Bioavailability after oral administration at a dose of 4 mg/kg in rat; assay type: ADME, organism-based; settings: in vivo
# [9] = Elimination half-life after IV dosing at 0.5 mg/kg in rat; assay type: ADME, organism-based; set-up: dose 0.5 mg/kg, route intravenous; settings: in vivo
# [10] = Plasma clearance after IV dosing at 0.5 mg/kg in rat; assay type: ADME, organism-based; set-up: dose 0.5 mg/kg, route intravenous; settings: read-out: Clp
# [11] = Cmax after oral administration at a dose of 2 mg/kg in rat; assay type: ADME, organism-based; set-up: dose 2 mg/kg, route oral; settings: in vivo
# [12] = target: T1, Adenosine receptor A1 (Cavia porcellus); test: Binding affinity against adenosine A1 receptor using [3H]CPX in guinea pig DDT membrane; 117+/-46
# [13] = Elimination half-life after oral administration at a dose of 2 mg/kg in rat; assay type: ADME, organism-based; set-up: dose 2 mg/kg, route oral; settings: in vivo
# [14] = Bioavailability after oral administration at a dose of 2 mg/kg in rat; assay type: ADME, organism-based; settings: in vivo
# [15] = target: T1, Adenosine receptor A1 (Cavia porcellus); test: Binding affinity against adenosine A1 receptor using [3H]CCPA in guinea pig DDT membrane; 12.7+/-1.5
Ki high [1],half-life [2],efficacy relative to CPA [3],EC50 (Adenosine receptor A1),Ki low [4],Cmax [5],clearance [6],half-life [7],bioavailability [8],half-life [9],clearance [10],Cmax [11],Ki low [12],half-life [13],bioavailability [14],Ki high [15],Structure (SMILES)
79 nM,78 min,72%,1260 nM,506 nM,107 ng/mL,69.4 mL/min/kg,24 min,12.3%,,,,,,,,"OC1[C@@H](O)C(n2cnc3c(NC4CCOC4)ncnc32)O[C@@H]1CSc1ccccc1F (single isomer, unassigned)"
,,78%,200 nM,,,,,,18 min,202 mL/min/kg,60.3 ng/mL,117 nM,96 min,81%,12.7 nM,"OC1[C@@H](O)C(n2cnc3c(NC4CCOC4)ncnc32)O[C@@H]1COc1ccccc1F (single isomer, unassigned)"

# — ChEMBL document CHEMBL1137935 (Bioorg Med Chem Lett, 2004)
